Here are results for four compounds from patent US5859029A, “Heterocyclic compounds method of preparing them and pharmeutical compositions in which they are present” (Sanofi, priority 1995, dated 1999).

Structures can show the parent of a compound that is named as a salt.

The target in this test is T1, NK1 receptors of IM9 human lymphoblasts (Homo sapiens, UniProt P25103).
T1 construct: NK1 receptors of IM9 human lymphoblasts; endogenous in cells; host or cells: IM9 human lymphoblasts
T1 sequence (P25103 whole entry): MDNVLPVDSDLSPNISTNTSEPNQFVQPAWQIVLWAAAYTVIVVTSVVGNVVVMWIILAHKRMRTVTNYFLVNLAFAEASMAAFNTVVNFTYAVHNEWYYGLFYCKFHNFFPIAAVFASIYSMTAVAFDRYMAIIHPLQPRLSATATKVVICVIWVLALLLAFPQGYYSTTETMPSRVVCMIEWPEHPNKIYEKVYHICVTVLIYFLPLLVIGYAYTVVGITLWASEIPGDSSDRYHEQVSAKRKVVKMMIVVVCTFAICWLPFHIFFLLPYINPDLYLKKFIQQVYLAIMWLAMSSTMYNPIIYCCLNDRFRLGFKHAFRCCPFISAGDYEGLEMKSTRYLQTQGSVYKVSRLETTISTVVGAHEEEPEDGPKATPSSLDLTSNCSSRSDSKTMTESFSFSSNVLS
Nature of the test: Binding of [^125 I]BH-SP (substance P) to the NK1 receptors of human lymphoblasts. As to conditions: read-out: inhibition constant Ki (binding of substance P to the human lymphoblast NK1 receptor). As to the method:
In ligand binding studies, the inhibition constant Ki is defined by the Cheng-Prusoff relationship (in Receptor Binding in Drug Research, eds. R. A. O'Brien, Marcel Dekker, New York, 1986): [formula] [L]: concentration of the ligand, Kd: dissociation constant of the ligand,
IC50 : concentration which inhibits the ligand binding by 50%.
The affinity of the compounds of formula (I) for the tachykinin receptors was evaluated in vitro by several biochemical tests using radioligands:
1°) The binding of [^125 I]BH-SP (substance P labeled with iodine-125 using Bolton-Hunter's reagent) to the NK1 receptors of human lymphoblasts.
The tests were performed according to X. Emonds-Alt et al. (Eur. J. Pharmacol., 1993, 2, 403-413).
Regarding `C[N+]1(CCC2(c3ccc(Cl)c(Cl)c3)CCC(=O)N(Cc3cc(C(F)(F)F)cc(C(F)(F)F)c3)C2)CCC(c2ccccc2)CC1` (stereo not shown) [Example 7, 1-Methyl-1-[2-[1-[3,5-bis(trifluoromethyl)benzyl]-5-(3,4-dichlorophenyl)-2-oxopiperid-5-yl]-ethyl]-4-phenylpiperidinium iodide], the Ki is around 0.1 nM. For `O=C1CCC(CCN2CCC(Cc3ccccc3)CC2)(c2ccc(Cl)c(Cl)c2)CN1Cc1ccccc1` (stereo not shown) [5-[2-(4-benzyl-1-piperid-1-yl)ethyl]-5-(3,4-dichlorophenyl)-1-benzylpiperid-2-one hydrochloride] the value was around 1000 nM. For `O=C1CC(CCN2CCC(O)(c3ccccc3)CC2)(c2ccc(Cl)c(Cl)c2)CN1Cc1cc(C(F)(F)F)cc(C(F)(F)F)c1` (stereo not shown) [Example 10, 4-(3,4-Dichlorophenyl)-4-[2-(4-hydroxy-4-phenylpiperid-1-yl)ethyl]-1-[3,5-bis(trifluoromethyl)benzyl]pyrrolidin-2-one hydrochloride] the value was around 0.1 nM.

For `O=C1CC(CCN2CCC(O)(c3ccccc3)CC2)(c2ccc(Cl)c(Cl)c2)CCN1Cc1ccccc1` (stereo not shown) [1-benzyl-4-(3,4-dichlorophenyl)-4-[2-(4-hydroxy-4-phenylpiperid-1-yl)ethyl]piperid-2-one hydrochloride], the Ki is around 1000 nM.

As usually defined, the Ki is the dissociation constant of the complex between target and ligand, obtained from inhibition or displacement.
